# Patent US11485697B2, “Antimalarial compositions and uses thereof” (THE SCRIPPS RESEARCH INSTITUTE, priority 2016, dated 2022)
# Tests used:
# sporozoites = assay: Sporozoite challenge at day 14 following IM administration of Compound 2 (percent protection, FIG. 2A); type: in vivo, mouse; settings: IM Compound 2
# Procedure: The exposure is not highly variable between animals in a given group. The Ctrough is about 83±32 nM for animals that are protected from infection.
# [1] = Dog PK, crystalline compound 2 suspension injected intramuscularly (Table 24A); type: in vivo; parameters: Clast: unit not given here; settings: plasma analyte = labelled substance; for half-life / plasma exposure (in words): after IM crystalline Compound 2 10 mg/kg suspension
# Procedure: Compound 2 was dosed in dog at 10 mg/kg (Injection volume: 0.5 mL/kg). The material was formulated as a 20 mg/mL suspension in 3% TPGS and 1% HPMC E5. […] Half-life of ELQ-300 was about […] as that of compound 2 (205 and 124 respectively).
# [2] = Key in vitro ADME for Compound 2 (Table 36); settings: for half-life: read-out: Hepatocyte T1/2
# [3] = Atovaquone plasma concentration following PO administration of Compound 27 (Table 29); type: in vivo, mice; settings: Compound 27, PO; 28 d
# Procedure: Animals (Male CD-1 mice, 7-9 weeks) were obtained from an approved vendor (SLAC Laboratory Animal Co. Ltd., Shanghai, China; or SIPPR-B&K Laboratory Animal Co. Ltd., Shanghai, China).
# Animals were fasted at least 12 hours prior to the administration. All animals had access to Certified Rodent Diet (Catalog #M01-F, SLAC Laboratory Animal Cl. Ltd., Shanghai, China) ad libitum 4 hours post dosing.
# Appropriate amount of test compound was accurately weighed and mixed with appropriate volume of vehicle to get a clear solution or a uniform suspension, vortexing or sonication in water bath was sometimes needed. The formulations were prepared on the day of dosing. Animals were dosed within four hours after the formulation was prepared. Two 20 μL aliquots of each formulation were removed from each of the formulation solutions, transferred into 1.5 mL of polypropylene microcentrifuge tubes and run dose validation by LC/UV or LC-MS/MS.
# The PO dose formulation was administered via oral gavage following facility SOPs. […]
# • Aliquots of the formulations were collected in the middle position of each dose formulation in duplicate. • The concentrations of the test compound in dose formulation samples were determined by the LC/UV or LC/MS/MS method. […]
# Plasma concentration versus time data was analyzed by non-compartmental approaches using the Phoenix WinNonlin 6.3 software program. […]
# [4] = after IM crystalline Compound 2 10 mg/kg, 20 mg/mL suspension in 3% TPGS, 1% HPMC E5
Structure (SMILES),Ctrough (ELQ-300) for animals that are protected from infection (sporozoites),half-life [1] [h],plasma exposure (in words) [1],"AUC(0-inf) [1, 4] [µM·h]","AUC(0-t) [1, 4] [µM·h]","CL/F [1, 4] [mL/min/kg]","Clast [1, 4]","Cmax [1, 4] [nM]","T1/2 [1, 4]","Tmax [1, 4] [h]",half-life ([2]; Dog hepatocytes) [h],Liver S9 % remaining after 2 hours ([2]; Dog liver S9) [%],Plasma % remaining after 2 hours ([2]; Dog plasma) [%],half-life ([2]; Human hepatocytes) [h],Liver S9 % remaining after 2 hours ([2]; Human liver S9) [%],Plasma % remaining after 2 hours ([2]; Human plasma) [%],Plasma % remaining after 2 hours ([2]; Monkey plasma) [%],Plasma % remaining after 2 hours ([2]; Mouse plasma) [%],Plasma % remaining after 2 hours ([2]; Rat plasma) [%],average atovaquone plasma concentration [3]
"CCCC(=O)OCOc1c(-c2ccc(Oc3ccc(OC(F)(F)F)cc3)cc2)c(C)nc2cc(OC)c(Cl)cc12 [Compound 2, (6-chloro-7-methoxy-2-methyl-3-(4-(4-(trifluoromethoxy)phenoxy)phenyl)quinolin-4-yloxy)methyl butyrate]",about 83±32 nM,124,low but detectable throughout the duration of the study,18.1,16.4,14.4,4.5 (4.7),730,124 (34) h,3,0.367,47,83,1.28,35,82,85,0,0,
"CCCCCCCCCC(=O)OC1=C(C2CCC(c3ccc(Cl)cc3)CC2)C(=O)c2ccccc2C1=O (stereo not shown) [Compound 27, 3-((1r,4r)-4-(4-chlorophenyl)cyclohexyl)-1,4-dioxo-1,4-dihydronaphthalen-2-yl decanoate]",,,,,,,,,,,,,,,,,,,,BQL
"COc1cc2[nH]c(C)c(-c3ccc(Oc4ccc(OC(F)(F)F)cc4)cc3)c(=O)c2cc1Cl [ELQ-300, 6-chloro-7-methoxy-2-methyl-3-(4-(4-(trifluoromethoxy)phenoxy)phenyl)quinolin-4(1H)-one, reference compound]",,205,several orders of magnitude higher than that of Compound 2,1290,1140,0.23,,4640,205 (39) h,48,,,,,,,,,,
